Assay results: publication PMC4351081, “Lincosamide Synthetase—A Unique Condensation System Combining Elements of Nonribosomal Peptide Synthetase and Mycothiol Metabolism” (PLoS ONE, 2015)

Biological target: T1, LmbC (with holo-LmbN-CP) (Streptomyces lincolnensis, UniProt A9Y8R4)
T1 construct: gene SLINC_0236; LmbC: stand-alone NRPS adenylation domain, recombinant, produced as described previously; LmbN-CP: stand-alone N-terminal ~80-residue CP domain, C-terminal His-tag, E. coli BL21(DE3), phosphopantetheinylated by Slp (holo); with LmbN, N-terminal carrier protein domain (LmbN-CP)
T1 sequence (A9Y8R4 1-509): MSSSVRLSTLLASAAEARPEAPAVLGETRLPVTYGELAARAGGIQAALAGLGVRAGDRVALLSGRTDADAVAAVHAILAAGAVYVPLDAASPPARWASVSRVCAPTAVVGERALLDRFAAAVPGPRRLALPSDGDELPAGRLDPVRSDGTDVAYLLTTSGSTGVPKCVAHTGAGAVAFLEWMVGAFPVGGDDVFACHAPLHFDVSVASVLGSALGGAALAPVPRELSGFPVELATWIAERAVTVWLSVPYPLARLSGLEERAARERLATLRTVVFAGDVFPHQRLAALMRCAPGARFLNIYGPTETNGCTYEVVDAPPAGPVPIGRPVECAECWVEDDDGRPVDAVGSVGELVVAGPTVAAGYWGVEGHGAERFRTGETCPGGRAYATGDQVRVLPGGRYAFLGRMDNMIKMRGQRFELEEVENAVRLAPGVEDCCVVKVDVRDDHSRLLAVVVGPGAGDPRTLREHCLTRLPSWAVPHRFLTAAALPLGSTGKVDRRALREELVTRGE
T1 sequence (A9Y8S4 1-80 partner limits assumed): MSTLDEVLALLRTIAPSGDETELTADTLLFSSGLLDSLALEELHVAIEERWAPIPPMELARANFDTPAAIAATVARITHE
Assay: LC-MS (FT-ICR) of aminoacylated carrier protein
Assay type: biochemical
Conditions: 3 mM PPL, 1.2 mM ATP, Mg2+, in vitro or in vivo phosphopantetheinylated LmbN-CP, 0.6 uM LmbC, pH 8.8, 28 C, 50 min; PPL transferred to holo-LmbN-CP (covalent)

With `CCCC1CN[C@H](C(=O)O)C1` (stereo partly drawn) [4-propyl-L-proline] as the compound, how does the “LC-MS (FT-ICR) of aminoacylated carrier protein” value read?
The value was “A-domain LmbC together with LmbN-holo-CP activate the PPL precursor of lincomycin”.
